Data: PMC3507690, “A Single Glycine-Alanine Exchange Directs Ligand Specificity of the Elephant Progestin Receptor” (PLoS ONE, 2012)

Target: T1, hPR LBD (initial construct) (Homo sapiens, UniProt P06401)
T1 construct: gene PGR; pET3d, E. coli BL21 lysate; cloned from HOSE cell cDNA
T1 sequence (P06401 634-933): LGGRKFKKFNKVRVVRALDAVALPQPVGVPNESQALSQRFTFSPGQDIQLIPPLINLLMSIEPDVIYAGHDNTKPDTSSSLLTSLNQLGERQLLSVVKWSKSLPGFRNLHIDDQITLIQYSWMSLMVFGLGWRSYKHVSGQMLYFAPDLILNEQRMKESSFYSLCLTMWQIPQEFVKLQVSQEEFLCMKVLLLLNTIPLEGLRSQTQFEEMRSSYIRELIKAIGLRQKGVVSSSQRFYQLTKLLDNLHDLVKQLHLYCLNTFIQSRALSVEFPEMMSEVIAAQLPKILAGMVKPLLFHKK
Assay: competitive radioligand binding, charcoal separation, bacterial lysate
Settings: 1 nM [3H]-progesterone, 16 h, 4 °C; relative binding affinity compared to progesterone

In the case of `CC(=O)[C@H]1CC[C@H]2[C@@H]3CC[C@H]4CC(=O)CC[C@]4(C)[C@H]3CC[C@]12C` [DHP, 5α-dihydroprogesterone], the RBA is reported as “relative binding affinity (RBA) of DHP compared to progesterone measured by competitive binding assays”.
